Positions of bridges follow the written chain, without caps; N, C: chain ends. Non-standard residues stand in square brackets, D forms with d. Residues, ends and D or L forms follow the SMILES beside them. Chains are numbered I, II in the order given. ξ: configuration not given here. *: point of attachment. X2 = O=C(CCCCCN1C(=O)CC(*)C1=O)NNC(=O)CCCCC1SC[C@H]2NC(=O)N[C@@H]12; ξIle = CC[C@H](C)C(N)C(=O)O; Orn = NCCC[C@H](N)C(=O)O
Tests used:
Format in all cases: cell-based
[1] = test system: CHO-pgsA-745 cells (GAG-deficient mutant); test: Flow cytometry binding of biotinylated compounds to CHO cells (Example 3); details: 30 min at 4 °C, streptavidin-680RD fluorescence; FIG. 3B
Experimental: (§1) Cell lines in exponential growth phase were cultured in complete culture medium with 10% FBS and grown in 75 cm^2 cell culture flasks. On the day of the experiment, cells were harvested and transferred in V-bottom culture plates, washed with PBS 1× supplemented with BSA 3% and then incubated with (51-hS)2KC-Mal-Biotin, (51-hS)2KS-(51-hS)KC-Mal-Biotin, [(51-hS)2KS]2KK(Biotin) and VAR2-Biotin for 30 min at 4° C. in PBS 1× supplemented with BSA 3% (and eventually PEG600 2%) at various dilutions (serial dilutions).
After the incubation, cells were washed in PBS 1× supplemented with BSA 3%. For visualization, cells were incubated for 15 min at 4° C. with streptavidin coupled to 680RD fluorochrome. After the incubation, cells were washed in PBS 1× supplemented with 3% BSA and then incubated for at least 15 min at 4° C. with 4′,6-diamidino-2-phenylindole (DAPI) (Thermo Fisher Scientific) in order to exclude dead cells. Samples were directly applied to a flow cytometer. Data generated on the flow cytometer was analyzed using Flowjo™ 10.6.0.

HL-60 (leukemia) cells = test: Flow cytometry binding to tumor cell lines (Example 5); details: FIG. 6
Experimental: as §1, with “Tumor cell” for “Cell”, “the compounds” for “(51-hS)2KC-Mal-Biotin, (51-hS)2KS-(51-hS)KC-Mal-Biotin, [(51-hS)2KS]2KK(Biotin) and VAR2-Biotin”, “and” for “(and eventually”, “2%” for “2%)”
(§2) After the incubation, cells were washed in PBS 1× supplemented with BSA 3%. For biotinylated compounds, cells are then incubated for 15 min at 4° C. with streptavidin coupled to 680RD fluorochrome.
(§3) After the incubation, cells were washed in PBS 1× supplemented with 3% BSA and then incubated for at least 15 min at 4° C. with DAPI (Thermo Fisher Scientific) in order to exclude dead cells and samples are directly applied to a flow cytometer. Data generated using the flow cytometer was analyzed using Flowjo™10.6.0 Fluorescence geometric mean (via the use of streptavidin-680RD) of samples was standardized by subtracting the fluorescence geometric mean of the negative control (no compound) and the addition of 1. Experimental design is outlined in Table 9.

U937 (lymphoma) cells = test: as above; details: FIG. 6
Experimental: as §1, with “Tumor cell” for “Cell”, “the compounds” for “(51-hS)2KC-Mal-Biotin, (51-hS)2KS-(51-hS)KC-Mal-Biotin, [(51-hS)2KS]2KK(Biotin) and VAR2-Biotin”, “and” for “(and eventually”, “2%” for “2%)”
as §2, §3

Structure (SMILES): CC[C@H](C)C(NC(=O)[C@H](CCCNC(=N)N)NC(=O)[C@H](NC(=O)[C@H](Cc1ccccc1)NC(=O)[C@H](Cc1ccc(O)cc1)NC(=O)[C@H](CCCNC(=N)N)NC(C)=O)C(C)C)C(=O)N[C@@H](CCCN)C(=O)N[C@@H](Cc1ccc(O)cc1)C(=O)N[C@@H](CCCNC(=N)N)C(=O)N[C@H](Cc1c[nH]cn1)C(=O)N[C@@H](CO)C(=O)N[C@@H](CCCCNC(=O)[C@H](CO)NC(=O)[C@@H](Cc1c[nH]cn1)NC(=O)[C@H](CCCNC(=N)N)NC(=O)[C@H](Cc1ccc(O)cc1)NC(=O)[C@H](CCCN)NC(=O)[C@@H](NC(=O)[C@H](CCCNC(=N)N)NC(=O)[C@H](NC(=O)[C@H](Cc1ccccc1)NC(=O)[C@H](Cc1ccc(O)cc1)NC(=O)[C@H](CCCNC(=N)N)NC(C)=O)C(C)C)[C@@H](C)CC)C(=O)N[C@@H](CSC1CC(=O)N(CCCCCC(=O)NNC(=O)CCCCC2SC[C@H]3NC(=O)N[C@@H]23)C1=O)C(N)=O (stereo partly drawn) [(51-hS)2KC-Mal-Biotin] (I: Ac-RYF[dV]R[ξIle][Orn]YR[dH]SKC(X2)-NH2 / II: Ac-RYF[dV]RI[Orn]YR[dH]S; amide I:12-II:C)
- reduction of fluorescence on CHO-pgsA-745 as compared with fluorescence on CHO-K1 cells [1]: 4.6 fold
- reduction of binding on HL-60 cells as compared with (51-hS)2KS-(51-hS)KC-Mal-Biotin (HL-60 (leukemia) cells): at least 10 ×
- reduction of binding on U937 cells as compared with (51-hS)2KS-(51-hS)KC-Mal-Biotin (U937 (lymphoma) cells): at least 10 ×
